In US20120121656A1, “METHODS AND COMPOSITIONS FOR PROTECTING AGAINST NEUROTOXICITY OF A NEUROTOXIC AGENT, AND IMPROVING MOTOR COORDINATION ASSOCIATED WITH A NEURODEGENERATIVE CONDITION OR DISEASE” (Revalesio Corporation, priority 2010, published 2012):

What was measured:
[1] = Body weight of rats in the MBP EAE model; format: in vivo, Lewis rats; details: Group 2F, 1 mg/kg IP once daily from study day 0
From the text: Body Weights. Body weight loss can be the first sign of disease initiation, while a sudden marked weight gain tends to accompany remission of EAE symptoms. Therefore, determination of individual body weights of animals was made shortly before EAE induction on study day 0 (study commencement) and thereafter on a daily basis throughout the entire 21-day observation period.
This working EXAMPLE discloses the weight change of rats subjected to the experiment described in Example 7. Body weight loss can be the first sign of disease initiation, while a sudden marked weight gain tends to accompany remission of EAE symptoms. Therefore, determination of individual body weights of animals was made shortly before EAE induction on study day 0 (study commencement) and on a daily basis throughout the 21-day observation period.

MS = details: in vivo; cited from earlier work
MMP-2 = biological target: T1, MMP-2 (Homo sapiens, UniProt P08253); details: cited from earlier work
T1 sequence (P08253 110-660): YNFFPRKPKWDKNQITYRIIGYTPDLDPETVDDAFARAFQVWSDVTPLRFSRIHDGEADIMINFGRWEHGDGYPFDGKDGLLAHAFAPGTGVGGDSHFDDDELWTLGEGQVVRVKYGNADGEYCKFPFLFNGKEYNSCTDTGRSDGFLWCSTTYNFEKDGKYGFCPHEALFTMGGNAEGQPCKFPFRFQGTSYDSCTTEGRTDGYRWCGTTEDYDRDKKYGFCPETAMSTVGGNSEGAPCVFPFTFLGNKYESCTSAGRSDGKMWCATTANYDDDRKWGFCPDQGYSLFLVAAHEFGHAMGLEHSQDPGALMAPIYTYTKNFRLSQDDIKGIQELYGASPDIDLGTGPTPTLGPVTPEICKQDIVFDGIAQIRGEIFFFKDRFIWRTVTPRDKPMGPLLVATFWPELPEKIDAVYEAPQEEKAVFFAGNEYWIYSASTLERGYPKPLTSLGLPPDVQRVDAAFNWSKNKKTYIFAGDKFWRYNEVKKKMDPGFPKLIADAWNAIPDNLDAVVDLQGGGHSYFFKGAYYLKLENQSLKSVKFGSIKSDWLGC

MMP-9 = MMP-9 (Homo sapiens, UniProt P14780); details: cited from earlier work
MMP-9, sequence (P14780 94-707, species assumed): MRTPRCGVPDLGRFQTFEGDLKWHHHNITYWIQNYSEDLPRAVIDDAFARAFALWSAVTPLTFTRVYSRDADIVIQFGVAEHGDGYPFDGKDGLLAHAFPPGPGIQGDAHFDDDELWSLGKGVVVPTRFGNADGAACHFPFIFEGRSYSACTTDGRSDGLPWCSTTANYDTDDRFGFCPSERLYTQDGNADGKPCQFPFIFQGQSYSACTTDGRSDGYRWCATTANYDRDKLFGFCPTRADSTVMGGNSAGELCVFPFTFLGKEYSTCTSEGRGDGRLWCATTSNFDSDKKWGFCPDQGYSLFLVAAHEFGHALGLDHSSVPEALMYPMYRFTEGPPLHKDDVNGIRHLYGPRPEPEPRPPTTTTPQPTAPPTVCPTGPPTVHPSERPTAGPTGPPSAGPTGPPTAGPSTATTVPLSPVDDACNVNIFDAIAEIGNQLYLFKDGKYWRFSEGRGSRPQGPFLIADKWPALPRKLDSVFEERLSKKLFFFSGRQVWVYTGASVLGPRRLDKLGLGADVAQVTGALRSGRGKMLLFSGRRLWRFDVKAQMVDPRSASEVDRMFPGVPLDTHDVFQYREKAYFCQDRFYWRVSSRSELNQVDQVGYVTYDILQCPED

primary progressive MS = details: 943 patients with primary progressive MS (Wolinsky et al. 2007); cited from earlier work

Compound | binding and inhibition of MMP-2 (MMP-2) | binding and inhibition of MMP-9 (MMP-9) | other results
C[C@@H]1C[C@H]2[C@@H]3CCC4=CC(=O)C=C[C@]4(C)[C@@]3(F)[C@@H](O)C[C@]2(C)[C@@]1(O)C(=O)CO [Dexamethasone] |  |  | mean body weight loss during the study [1]: 10%; mean body weight lost at study termination [1]: 2%
interferon-β |  |  | effectiveness in reducing the rate of MS episodes (MS): 18-38%
O=S(=O)(CCC(S)CS)c1ccc(Oc2ccccc2)cc1 (centres unmarked) [compound 1, 4-(4-phenoxyphenylsulfonyl)butane-1,2-dithiol] | bind selectively and inhibit potently | bind selectively and inhibit potently | 
O=S(=O)(CCCC(S)CS)c1ccc(Oc2ccccc2)cc1 (centres unmarked) [compound 2, 5-(4-phenoxyphenylsulfonyl)pentane-1,2-dithiol] | bind selectively and inhibit potently | bind selectively and inhibit potently | 
glatiramer acetate |  |  | progression of disability and the disease (primary progressive MS): failed to halt the progression of disability and the disease
